Results published in patent US12366579B2, “Sulfur-heterocycle exchange chemistry and uses thereof” (University of Virginia Patent Foundation, priority 2019, dated 2025).
“Also recorded” adds a separate entry of the source. One block for each compound: values may come before it.

What was measured:
[1] = biological target: T1, human fumarylacetoacetase (FAAA) (Homo sapiens, UniProt P16930); test: Chemical proteomics analysis and gel-based screen of human FAAA with HHS SuTEx ligands; assay type: binding
T1 construct: made in house; host or cells: HEK293T, soluble proteome
Method: FIGS. 44A-44C. Modification of human fumarylacetoacetase (FAAA) with HHS SuTEx ligands. FIG. 44A is a series of graphs showing the chemical proteomics analysis of human FAAA using an HHS SuTEx ligand, HHS0401 (25 μM) shown in FIG. 43. HHS0401 modifies the tyrosine at residue 244. FIG. 44B is an image of a gel-based chemical proteomic screen for human FAAA fragment ligands. Recombinant hFAAA-HEK293T soluble proteomes pretreated with indicated fragment (25 μM, 120 min) followed by labeling with HHS-475 (100 μM, 120 min).
(§1) In addition, SuTEx fragment EKT231 (see FIG. 46A) modifies EDC3 at tyrosine 475.

[2] = biological target: human prostaglandin reductase 2 (PTGR2) (Homo sapiens, UniProt Q8N8N7); test: Chemical proteomics analysis and gel-based screen of human PTGR2 with HHS SuTEx ligands; assay type: binding
From the text: FIGS. 45A and 45B: Modification of human prostaglandin reductase 2 (PTGR2) with HHS SuTEx ligands. HHS0701 modifies the tyrosine at residue 100.
as §1

DM93 and HEK293T cells = test: Proteome-wide profiling of sulfonyl imidazole analogs in live cells; assay type: cell-based, human; settings: 100 μM, 2 hours, 37° C.
Method: A chemical proteomic treatment and analysis protocol was established to evaluate the structural-induced effect on the proteomic coverage of the sulfonyl imidazole analogs. […] Duke Melanoma 93 (DM93) and human embryonic kidney 293T (HEK293T) cells were treated with the probes (100 μM, 2 hours, 37° C.). The cells were harvested, washed and fractionated to expose the proteome. The cytosolic proteome subsequently underwent copper-catalyzed azide-alkyne cycloaddition (CuAAC) with a dethiobiotin PEG-3 azide tag. The tagged proteomes were digested with trypsin lys-C protease mixture, enriched by avidin affinity chromatography, eluted and analyzed by chromatography-tandem high-resolution mass spectrometry (LC-MS). The bioinformatic match of probe modified peptides was filtered with data confidence control criteria of ≥300 Byonic score, ≥3 log probability and ≤5 ppm mass accuracy (amino acid residue modifications of Y, K, N, Q, and W were processed at this point).

purified DPP3 = biological target: T2, purified DPP3 (Homo sapiens, UniProt Q9NY33); test: DPP3 biochemical substrate assay (Arg-Arg β-naphthylamide peptidase assay); settings: negative control with cyclopropyl-modified AG
T2 sequence (Q9NY33 1-737): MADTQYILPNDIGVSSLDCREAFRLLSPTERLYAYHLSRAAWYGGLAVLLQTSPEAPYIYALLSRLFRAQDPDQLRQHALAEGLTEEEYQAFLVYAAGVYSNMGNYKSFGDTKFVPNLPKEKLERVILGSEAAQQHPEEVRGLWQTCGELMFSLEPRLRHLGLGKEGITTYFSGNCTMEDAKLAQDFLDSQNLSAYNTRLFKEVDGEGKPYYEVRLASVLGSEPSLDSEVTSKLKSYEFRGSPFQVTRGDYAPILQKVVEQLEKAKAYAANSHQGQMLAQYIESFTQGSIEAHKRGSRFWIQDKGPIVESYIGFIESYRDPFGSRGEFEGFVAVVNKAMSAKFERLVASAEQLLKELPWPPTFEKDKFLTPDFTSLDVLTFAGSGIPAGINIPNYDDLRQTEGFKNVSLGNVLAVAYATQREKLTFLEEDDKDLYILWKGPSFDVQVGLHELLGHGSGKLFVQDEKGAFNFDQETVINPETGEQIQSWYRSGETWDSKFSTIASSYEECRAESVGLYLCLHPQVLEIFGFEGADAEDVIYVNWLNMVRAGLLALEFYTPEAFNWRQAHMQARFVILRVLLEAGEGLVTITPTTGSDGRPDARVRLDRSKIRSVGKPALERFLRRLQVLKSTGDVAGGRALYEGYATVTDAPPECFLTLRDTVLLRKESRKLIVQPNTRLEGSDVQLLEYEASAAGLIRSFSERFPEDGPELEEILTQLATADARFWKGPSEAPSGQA
Method: DPP3 Biochemical Substrate Assay
Substrate assays were performed using purified DPP3 protein diluted to 5 ng/μL in assay buffer. DPP3 samples (10 μl) were diluted to 85 μl with assay buffer and transferred to a black 96-well plate. Samples were treated with a 50× stock of SuTEx-fragment at indication concentration for 30 min at 37° C. A stock solution of DPP3 substrate (Arg-Arg β-naphthylamide trihydrochloride, 0.5 mM: Sigma-Aldrich. St, Louis, Missouri, United States of America) was diluted to 100 μM in assay buffer. Substrate solution (5 μl) was added to each sample. Samples were mixed briefly by shaking and reaction monitored in kinetic mode by measuring fluorescence at 450 nm for 10 min on a BMG Labtech CLARIOstar plate reader (BMG Labtech, Cary, North Carolina, United States of America).

DM93 soluble proteomes = test: Proteome-wide competitive chemical proteomics of SuTEx fragments vs HHS-482; assay type: binding, human; settings: fragment 50 μM, 30 min, 37° C.
Method: Heavy and light proteomes (432 μl of each) were diluted to 2.3 mg ml^−1 in PBS and sample aliquots (432 μl) were treated with SuTEx fragment at the indicated concentrations (5 μl, 100× stock in DMSO), mixed gently and incubated for 30 min at 37° C. Samples were then treated with HHS-482 (5 μL, 5 mM stock in DMSO) for 30 min at 37° C. Probe-modified proteomes were conjugated to desthiobiotin-PEG3-azide followed by enrichment of probe-modified peptides for nano-electrospray ionization-LC-MS/MS analyses as previously described^57.
The chemical proteomic method for functional tyrosine profiling^72 was tailored to investigate AG/LG effects on SuTEx fragment reactivity in complex proteomes. In brief, isotopically light and heavy soluble proteomes from DM93 melanoma cells cultured by stable isotopic labeling by amino acids in cell culture (SILAC^80) media were used for quantitative liquid chromatography-mass spectrometry (LC-MS) studies. Light and heavy DM93 proteomes were treated with dimethyl sulfoxide (DMSO) vehicle or SuTEx fragment (50 μM, 30 min, 37° C.), respectively, followed by labeling with the tyrosine-reactive probe HHS-482 described hereinabove (50 μM, 30 min, 37° C.) and copper-catalyzed azide-alkyne cycloaddition (CuAAC) conjugation of a desthiobiotin-azide enrichment tag. Proteomes were digested with trypsin protease, HHS-482-modified peptides enriched by avidin chromatography and analyzed by high-resolution LC-MS/MS and bioinformatics as described hereinabove.
To evaluate substituent effects on proteome activity, reactivity profiles of each respective SuTEx fragment were compared across >1500 total distinct HHS-482-modified tyrosine sites from >650 detected proteins. Fragments were screened across independent biological replicates (n=2-3) and high-quality tyrosine site annotations were identified by detection in at least a single biological replicate from each fragment dataset, probe-specific enrichment (HHS-482 probe/DMSO SILAC ratio (SR)>5), and quality control confidence criteria of ≥300 Byonic score^31, […] protein false discovery rate (FDR), and ≤5 ppm mass accuracy in order to minimize the potential for false positives^72. SILAC ratios (SR) from competitive studies (Light-DMSO/Heavy-fragment) were used to identify fragment-competed tyrosine residues as sites showing >75% reduction in enrichment by HHS-482 compared with DMSO vehicle control (i.e. liganded tyrosines, SR>4). In total, 305 liganded tyrosines on 213 distinct proteins were identified, corresponding to ˜30% and ˜44% of total quantified tyrosines and proteins, respectively. […]

[3] = biological target: T3, recombinant GSTP1 lysates (Homo sapiens, UniProt P09211); test: GSTP1 biochemical substrate assay (GSH conjugation to BDNB); settings: negative control probes; highest concentration tested 100 μM
T3 construct: FLAG (C); host or cells: HEK293T, transient transfection; soluble proteome used unpurified
Method: GSTP1 Biochemical Substrate Assay
Recombinant GSTP1-HEK293T soluble cell proteomes were diluted to 1 mg ml^−1 in assay buffer (100 mM NaH2PO4, pH 7.0). Samples were treated with inhibitor at indicated concentrations for 30 min at 37° C. GSH stock solution (250 mM in water) was diluted to 4 mM in assay buffer and 25 μl of diluted GSH solution was added to each sample. A substrate stock solution of 75 mM 1-bromo-2,4-dinitrobenzene […] in ethanol was diluted to 2 mM in assay buffer. Samples (25 μl) were aliquoted into a 96-well plate and spun briefly via centrifuge. Next, 50 μl of 2 mM BDNB was added to each well and the reaction was monitored in kinetic mode by measuring absorbance at 340 nm for 10 min on a BMG Labtech CLARIOstar plate reader (BMG Labtech, Cary, North Carolina, United States of America).

A549 cells = test: Chemical phosphoproteomics of pervanadate-activated cells by SuTEx probe labeling (SILAC); assay type: cell-based, human; settings: pervanadate 100 μM, 30 min, HHS-475 100 μM
Method: Pervanadate (100 mM) was prepared as previously described^41 by mixing 100 μL of sodium orthovanadate (100 mM Na3VO4, New England BioLabs #P0758S, Ipswich, Massachusetts, United States of America) with 1 μL of hydrogen peroxide (H2O2, 30% v/v in water) on ice. […] After pervanadate treatment, cells were washed twice with cold PBS followed by harvest. Cell pellets were resuspended in PBS supplemented with protease and phosphatase inhibitor mini tablets (Thermo Scientific #A32959; ThermoFisher Scientific, Waltham, Massachusetts, United States of America) and then lysed by sonication (3×1 sec pulse, 20% amplitude). For CTNND1 western blot studies, cell pellets were lysed in NP40 Cell Lysis Buffer (#FNN0021, Invitrogen, Carlsbad, California, United States of America) supplemented with protease/phosphatase inhibitor tablets. Cell lysates were separated via centrifugation at 100,000×g for 45 min at 4° C. for western blot or chemical proteomic studies. Note: pervanadate treatments are performed on live cells but SuTEx probe labeling occurs in proteomes in vitro.
Proteomes from cells treated with pervanadate activation conditions (100 μM, 30 min) were labeled with HHS-475 or HHS-482 (100 μM, 30 min) followed by CuAAC with desthiobiotin and quantitative LC-MS to evaluate how phosphorylation status affected SuTEx probe labeling. […] In total ˜2,200 probe-modified tyrosine sites were detected across ˜1,000 proteins using both HHS-475 and HHS-482 that were further separated into pervanadate-sensitive (PerS, SR≥2) and -insensitive groups (PerI, SR<2). The probe-modified tyrosines found in the PerS group appeared to be enriched for annotated phosphotyrosine sites (HTP≥10 in PhosphoSitePlus, see FIGS. 6C and 18) and represented only a small fraction of all unique HHS-475- and HHS-482-modified tyrosines detected by chemical proteomics (˜3%, 67 sites). […]

Chain of human prostaglandin reductase 2 (PTGR2) (Q8N8N7 whole entry): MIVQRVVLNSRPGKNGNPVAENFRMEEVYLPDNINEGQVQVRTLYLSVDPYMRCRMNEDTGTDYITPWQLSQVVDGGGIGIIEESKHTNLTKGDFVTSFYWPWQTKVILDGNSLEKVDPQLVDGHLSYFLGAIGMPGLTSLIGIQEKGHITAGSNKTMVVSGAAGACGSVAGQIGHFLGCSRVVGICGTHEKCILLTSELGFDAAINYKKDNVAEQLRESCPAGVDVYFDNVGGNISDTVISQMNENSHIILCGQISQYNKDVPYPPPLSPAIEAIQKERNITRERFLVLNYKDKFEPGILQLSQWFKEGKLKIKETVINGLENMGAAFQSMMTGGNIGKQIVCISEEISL
T3 sequence (P09211 whole entry): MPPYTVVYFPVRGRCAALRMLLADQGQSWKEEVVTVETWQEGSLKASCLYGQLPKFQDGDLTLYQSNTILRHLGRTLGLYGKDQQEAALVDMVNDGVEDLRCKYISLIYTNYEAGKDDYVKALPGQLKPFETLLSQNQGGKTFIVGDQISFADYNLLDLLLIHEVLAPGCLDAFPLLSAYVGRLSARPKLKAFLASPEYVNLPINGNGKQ
T1 sequence (P16930 whole entry): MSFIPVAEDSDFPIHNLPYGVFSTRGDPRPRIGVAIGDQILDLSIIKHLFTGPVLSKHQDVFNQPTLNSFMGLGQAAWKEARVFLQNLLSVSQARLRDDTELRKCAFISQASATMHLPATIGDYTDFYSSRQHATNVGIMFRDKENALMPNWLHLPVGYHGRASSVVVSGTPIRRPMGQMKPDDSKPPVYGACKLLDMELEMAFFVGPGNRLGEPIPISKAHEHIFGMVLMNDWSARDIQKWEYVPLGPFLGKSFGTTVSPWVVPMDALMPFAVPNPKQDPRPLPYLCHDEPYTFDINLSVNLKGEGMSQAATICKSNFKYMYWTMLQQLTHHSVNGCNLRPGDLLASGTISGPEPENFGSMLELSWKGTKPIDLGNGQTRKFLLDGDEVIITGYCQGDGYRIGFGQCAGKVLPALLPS

inhibition of FAAA, gel-based chemical proteomic analysis ([1]; FIG. 44C): dose-dependent inhibition
tyrosine residue of FAAA modified ([1]; ligand 25 μM): 244
Compound: O=C(NCc1ccccc1)c1ccc(S(=O)(=O)n2cnnc2)cc1 [HHS0401]

inhibition of PTGR2, gel-based chemical proteomic screen ([2]; FIG. 45B): dose-dependent inhibition
tyrosine residue of PTGR2 modified ([2]; ligand 25 μM): 100
Compound: O=C(c1ccc(S(=O)(=O)n2cnnc2)cc1)N1CCC(c2ccccc2)CC1 [HHS0701]

Compound: C#CCNC(=O)c1ccc(S(=O)(=O)n2ccnc2)cc1 [HHS-Im-01, 4-((1H-imidazol-1-yl)sulfonyl)-N-(prop-2-yn-1-yl)benzamide]
Y/K specificity (DM93 and HEK293T cells): 0.77
overall reactivity towards tyrosine and lysine residues (number of sites) (DM93 and HEK293T cells): 329

activity against DPP3 in substrate assay (purified DPP3): inactive
Compound: COc1ccc(-c2ncn(S(=O)(=O)C3CC3)n2)cc1 [JWB131, 1-(Cyclopropylsulfonyl)-3-(4-methoxyphenyl)-1H-1,2,4-triazole]
reactivity against the proteome (DM93 soluble proteomes): largely unreactive

Compound: O=S(=O)(C1CC1)n1cnc(-c2ccncc2)n1 [JWB191, 4-(1-(Cyclopropylsulfonyl)-1H-1,2,4-triazol-3-yl)pyridine]
inhibitory activity against GSTP1 [3]: lack of activity; also recorded: did not show inhibitory activity

Compound: C#CCNC(=O)c1ccc(S(=O)(=O)n2cnc(C(F)(F)F)c2)cc1 [KY-Im-TFM, N-(prop-2-yn-1-yl)-4-((4-(trifluoromethyl)-1H-imidazol-1-yl)sulfonyl)benzamide]
Y/K specificity (DM93 and HEK293T cells): 3.58
overall reactivity towards tyrosine and lysine residues (number of sites) (DM93 and HEK293T cells): 338

Compound: pervanadate
SILAC ratio (SR, light PBS/heavy pervanadate) of SuTEx probe labeling at CTNND1 Y228 (A549 cells): 3.3
SILAC ratio (SR, light PBS/heavy pervanadate) of SuTEx probe labeling at PKM Y105 (A549 cells): 1.1
SILAC ratio (SR, light PBS/heavy pervanadate) of SuTEx probe labeling at STAT3 Y705 (A549 cells): 2.3
